The values below come from PubChem BioAssay AID248 (DTP/NCI, 2004).

The experiment has as its system L1210 leukemia ip in BDF1 mice, survival T/C. As to the kind of experiment: NCI In Vivo Anticancer Drug Screen. Data for tumor model L1210 Leukemia (intraperitoneal) in B6D2F1 (BDF1) mice. Particulars: endpoint: mean survival time, higher = longer survival. An outline of the steps: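 Read-out is survival time, reported as the treated-group measurement over the vehicle-control measurement.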

Setting [1] is: dose: 100.0 mg/kg/injection, schedule: Q04DX003 (ip), vehicle: saline with Tween-80.
The mark [2] stands for this setting: dose: 200.0 mg/kg/injection, schedule: Q04DX003 (ip), vehicle: saline with Tween-80.
Setting [3] is: dose: 400.0 mg/kg/injection, schedule: Q04DX003 (ip), vehicle: saline with Tween-80.

“And” between values parts separate entries of the source, which are not always exact repeats. Identical values can stand only once. Toxic doses and inconclusive results are not listed.

In the case of `c1ccc([P+](c2ccccc2)(c2ccccc2)c2ccc([P+](c3ccccc3)(c3ccccc3)c3ccccc3)cc2)cc1`, the T/C is, setting by setting: (dose: 3.13 mg/kg/injection, schedule: Q04DX003 (ip), vehicle: saline) 106 % of control; (dose: 6.25 mg/kg/injection, schedule: Q04DX003 (ip), vehicle: saline) 109 % of control; (dose: 12.5 mg/kg/injection, schedule: Q04DX003 (ip), vehicle: saline) 93 % of control and 102 % of control.
Regarding `O=NN(CCBr)C(=O)NCCBr`, the T/C (dose: 3.0 mg/kg/injection, schedule: Q01DX Z (ip), vehicle: carboxymethylcellulose (CMC)) is 110 % of control; the T/C (dose: 6.0 mg/kg/injection, schedule: Q01DX Z (ip), vehicle: carboxymethylcellulose (CMC)) was 107 % of control; the T/C (dose: 6.25 mg/kg/injection, schedule: Q01DX001 (ip), vehicle: carboxymethylcellulose (CMC)) was 104 % of control; the T/C (dose: 12.5 mg/kg/injection, schedule: Q01DX001 (ip), vehicle: carboxymethylcellulose (CMC)) is 103 % of control; the T/C (dose: 25.0 mg/kg/injection, schedule: Q01DX001 (ip), vehicle: carboxymethylcellulose (CMC)) is 109 % of control; the T/C (dose: 50.0 mg/kg/injection, schedule: Q01DX001 (ip), vehicle: carboxymethylcellulose (CMC)) is 114 % of control. The T/C is 172 % of control (dose: 50.0 mg/kg/injection, schedule: Q01DX Z (ip), vehicle: carboxymethylcellulose (CMC)); 156 % of control (dose: 100.0 mg/kg/injection, schedule: Q01DX Z (ip), vehicle: carboxymethylcellulose (CMC)); 178 % of control (dose: 200.0 mg/kg/injection, schedule: Q01DX001 (ip), vehicle: carboxymethylcellulose (CMC)); 200 % of control (dose: 300.0 mg/kg/injection, schedule: Q01DX001 (ip), vehicle: carboxymethylcellulose (CMC)).
Take `FC(F)(F)C(Cl)(c1ccc(Cl)cc1)c1ccc(Cl)cc1`: the T/C is 102 % of control (dose: 100.0 mg/kg/injection, schedule: Q04DX003 (sc), vehicle: olive oil, sesame oil, peanut oil) and 100 % of control (dose: 400.0 mg/kg/injection, schedule: Q04DX003 (sc), vehicle: olive oil, sesame oil, peanut oil).
On to `[O-][n+]1ccnc(C(Cl)(Cl)Cl)c1Cl`, for which the T/C runs as follows: (dose: 0.78 mg/kg/injection, schedule: Q01DX009 (ip), vehicle: other) 90 % of control; (dose: 1.56 mg/kg/injection, schedule: Q01DX009 (ip), vehicle: other) 107 % of control; (dose: 3.12 mg/kg/injection, schedule: Q01DX009 (ip), vehicle: other) 86 % of control.
With `COc1ccc(NC(=O)Nc2ccc(C)cc2C)cc1`, the T/C under setting [1] was 93 % of control, the T/C under setting [2] is 90 % of control and the T/C under setting [3] is 95 % of control.
As for `O=[N+]([O-])c1ccc(Oc2cc(Cl)c(Cl)cc2Cl)nc1`, the T/C by setting is: (dose: 100.0 mg/kg/injection, schedule: Q01DX009 (ip), vehicle: saline with Tween-80) 101 % of control; under setting [1], 104 % of control; (dose: 200.0 mg/kg/injection, schedule: Q01DX009 (ip), vehicle: saline with Tween-80) 103 % of control; under setting [2], 102 % of control; (dose: 400.0 mg/kg/injection, schedule: Q01DX009 (ip), vehicle: saline with Tween-80) 100 % of control; under setting [3], 106 % of control.
Consider `CS(=O)(=O)C(=C(N1CCCCC1)N1CCCCC1)S(=O)(=O)Cc1ccccc1`, for which the T/C was 100 % of control (dose: 100.0 mg/kg/injection, schedule: Q01DX001 (ip), vehicle: saline); 88 % of control (dose: 100.0 mg/kg/injection, schedule: Q01DX009 (ip), vehicle: saline); 96 % of control (dose: 200.0 mg/kg/injection, schedule: Q01DX001 (ip), vehicle: saline); 93 % of control (dose: 200.0 mg/kg/injection, schedule: Q01DX009 (ip), vehicle: saline); 96 % of control (dose: 400.0 mg/kg/injection, schedule: Q01DX001 (ip), vehicle: saline).
